From patent publication US20230058189A1, “QUINOLIN-4-ONE AND 4(1H)-CINNOLINONE COMPOUNDS AND METHODS OF USING SAME” (Frequency Therapeutics, Inc., priority 2019, published 2023)
Values after ≈ are worked out from the molar mass of the structure shown.

Legend:
[1] = system: Lgr5+ cells (cochlear stem cells); experiment: Lgr5+ assay: expansion of Lgr5-positive cochlear cells in 3D culture; assay type: cell-based, mouse; details: for % of Lgr5+ Positive Cells / Potency (Lgr5+ activity): 10 days culture with EGF, bFGF, IGF1, approximate values; for Potency (Lgr5+ activity): effective concentration for Lgr5+ expansion; for Lgr5 GFP+ progenitor cell proliferation (Lgr5 positive cell count) / enrichment of Lgr5 GFP+ cochlear progenitor cells (percent of Lgr5 positive cells): in a background of growth factors, compared to CHIR-99021 and its combinations (figures)
Description: “Stem Cell Proliferation Assay” as used herein is an assay to determine the capacity for agent(s) to induce the creation of stem cells from a starting cell population. In an exemplary Stem Cell Proliferation Assay, the number of cells for an initial cell population is harvested from a Lgr5-GFP mouse such as a B6.129P2-Lgr5tm1(cre/ERT2)Cle/J mouse (also known as Lgr5-EGFP-IRES-creERT2 or Lgr5-GFP mouse, Jackson Lab Stock No: 008875) between the age of 3 to 7 days, by isolating the organ of Corti sensory epithelium and dissociating the epithelium into single cells. Approximately 5000 cells are entrapped in 40 μl of culture substrate (for example, Matrigel (Corning, Growth Factor Reduced)) and placed at the center of wells in a 24-well plate with 500 μl of an appropriate culture media, growth factors and agent being tested. Appropriate culture media and growth factors include Advanced DMEM/F12 with media supplements (1×N2, 1×B27, 2 mM Glutamax, 10 mM HEPES, 1 mM N-acetylcysteine, and 100 U/ml penicillin/100 μg/ml streptomycin) and growth factors (50 ng/ml EGF, 50 ng/ml bFGF, and 50 ng/ml IGF-1) as well as the agent(s) being assessed are added into each well. Cells are cultured for 10 days in a standard cell culture incubator at 37° C. and 5% CO2, with media change every 2 days. The number of Lgr5^+ cells is quantified by counting the number of cells identified as Lgr5+ in an in vitro Lgr5 activity assay (i.e., an assay mearing in vitro Lgr5 activity). The fraction of cells that are Lgr5^+ is quantified by dividing the number of cells identified as Lgr5^+ in a cell population by the total number of cells present in the cell population. The average Lgr5^+ activity of a population is quantified by measuring the average mRNA expression level of Lgr5 of the population normalized using suitable and unregulated references or housekeeping genes (e.g., Hprt). The number of hair cells in a population may be measured by staining with hair cell marker (e.g., MyosinVIIa), or using an endogenous reporter of hair cell genes (e.g., Pou4f3-GFP, Atoh1-nGFP) and analyzing using flow cytometry. The fraction of cells that are hair cells is quantified by dividing the number of cells identified as hair cells in a cell population by the total number of cells present in the cell population. Lgr5 activity can be measured by qPCR.
The compounds of the present disclosure were used in Lgr5-EGFP-IRES-Cre-ER mice (Barker et al., 2007) to analyze the effects of small molecules on cochlear stem cell expansion.
Isolation of stem cells from the inner ear: All animal studies were conducted under an approved institutional protocol according to National Institutes of Health guidelines. For experiments with neonatal mice (postnatal days 1-3), the cochleae were dissected in Hank's Balanced Salt Solution (HBSS) and the organs of Corti were separated from the stria vascularis and the modiolus. The organs of Corti were then treated with Cell Recovery Solution (Corning) for 1 hour to separate cochlear epithelium from the underlying mesenchyme. Epithelia were then collected and treated with TrypLE (Life Technologies) for 15-20 minutes at 37° C. Single cells obtained by mechanical trituration were filtered (40 μm) and suspended in Matrigel® (Corning) for 3D culture.
Cells were cultured in a 1:1 mixture of DMEM and F12, supplemented with Glutamax (GIBCO), N2, B27 (Invitrogen), EGF (50 ng/ml; Chemicon), bFGF (50 ng/ml; Chemicon), IGF1 (50 ng/ml; Chemicon) and the composition provided herein. Medium was changed every other day.
Lgr5-positive cells were quantified after 10 days (D10) in culture in multiple conditions. Cell colonies were dissociated into single cells using TrypLE (Gibco). The cells were then stained with propidium iodide (P1) and were analyzed using a flow cytometer for Lgr5-GFP expression. The number of GFP-positive cells and the percentage of GFP-positive cells were quantified. […]

[2] = Thermodynamic aqueous solubility at pH 7.4; assay type: physicochemical; details: aqueous buffer, thermodynamic from solid, phosphate buffer pH 7.4, 25° C., approximate values, read-out: Concentration (thermodynamic aqueous solubility)
Procedure: The aqueous thermodynamic solubilities of the compounds of the present disclosure were measured at pH 7.4.
Determining suitability for use of a compound, e.g., as a therapeutic agent can include determining the thermodynamic solubility of the compound. An example of this determination follows: Accurately weigh about 1 mg of the powder of each compound into a glass insert vial and phosphate buffer into each vial of a capless Solubility Sample plate with the volume of 1 mL per mg. Next, add one stir stick to each vial and seal with a molded PTDE/SIL 96-Well Plate Cover. Transfer the Solubility Sample plate to an Eppendorf Thermomixer Comfort plate shaker and shake the plate at 25° C. at 1,100 rpm for 24 hours. At the end of the incubation, open the cover and remove the stir sticks using a big magnet and transfer the samples from the Solubility Sample plate into the filter plate. Using the vacuum manifold, all the samples were filtered. An aliquot of 100 μL was transferred from filtrate to a new 96-well plate by addition of 900 μL of a mixture of H2O and acetonitrile containing an internal standard (1:1) (10 fold) and 10 μL of the diluted solution was pipetted into a new 96-well plate by addition of 990 μL of a mixture of H2O and acetonitrile containing internal standard (1:1) (1,000 fold). The dilution factor may be changed according to the solubility value and the LC/MS signal response.
To prepare standards for the assay, accurately weigh about 1 mg of the powder of each compound into a glass insert vial, add DMSO into each vial of the Standard Plate with the volume of 1 mL per mg to obtain the 1 mg/mL STD sample. Aliquots of 10 μL were taken from 1 mg/mL STD sample to a new 96-well plate followed by addition of 990 μL of a mixture of H2O and acetonitrile containing internal standard (1:1) to obtain 10 μg/mL STD and then 10 μL aliquots were taken from 10 μg/mL sample to a new 96-well plate followed by addition of 990 μL of a mixture of H2O and acetonitrile containing internal standard (1:1) to obtain 0.1 μg/mL STD. The concentration of the standard sample may be changed according to the LC/MS signal response.
The samples were analyzed and quantified against the standard of known concentration using LC/MS/MS. The solubility of the test compound was calculated as follows: [Sample]=Area Ratio sample×DF sample×[STD]/Area Ratio STD DF means the dilution factor. Any value of the compounds that is not within the specified limits was rejected and the experiment was repeated.

## CCn1cc(C(=O)O)c(=O)c2c(N)c(F)c(NC3CCCC3)cc21 [Compound I-9]
[1]
  % of Lgr5+ Positive Cells: 13%
  Potency (Lgr5+ activity): 1100 nM
[2]
  solubility thermodynamic at 24 h: < 1.8 µM

## CCn1cc(C(=O)O)c(=O)c2c(N)c(F)c(N[C@H]3CC[C@@H](N[C@@H]4C[C@H]4c4ccccc4)CC3)cc21 (relative stereo) [Compound I-28]
[1]
  % of Lgr5+ Positive Cells: 40%
  Potency (Lgr5+ activity): 8000 nM
  Lgr5 GFP+ progenitor cell proliferation (Lgr5 positive cell count): generates Lgr5 GFP+ progenitor cell proliferation
  enrichment of Lgr5 GFP+ cochlear progenitor cells (percent of Lgr5 positive cells): generates enrichment of Lgr5 GFP+ cochlear progenitor cells
[2]
  solubility thermodynamic at 24 h: 4 µM (≈ 1.91 µg/mL)

## CCn1cc(C(=O)O)c(=O)c2c(N)c(F)c(Nc3ccccc3)cc21 [Compound I-16]
[1]
  % of Lgr5+ Positive Cells: 22%
  Potency (Lgr5+ activity): 1100 nM
[2]
  solubility thermodynamic at 24 h: 1.1 µM (≈ 0.375 µg/mL)

## CCn1cc(C(=O)O)c(=O)c2c(N)c(F)c(N[C@H]3CC[C@H](N[C@@H]4C[C@H]4c4ccccc4)CC3)cc21 (relative stereo) [Compound I-27]
[1]
  % of Lgr5+ Positive Cells: 26%
  Potency (Lgr5+ activity): 1100 nM
[2]
  solubility thermodynamic at 24 h: 4.7 µM (≈ 2.25 µg/mL)

## CCCn1cc(C(=O)O)c(=O)c2c(N)c(F)c(NCCN[C@@H]3C[C@H]3c3ccccc3)cc21 (relative stereo) [Compound I-87]
[1]
  % of Lgr5+ Positive Cells: 52%
  Potency (Lgr5+ activity): 3300 nM
[2]
  solubility thermodynamic at 24 h: 8 µM (≈ 3.51 µg/mL)

## CCn1cc(C(=O)O)c(=O)c2c(N)cc(NCCCc3ccccc3)cc21 [Compound I-57]
[1]
  % of Lgr5+ Positive Cells: 1%
  Potency (Lgr5+ activity): 30000 nM
[2]
  solubility thermodynamic at 24 h: < 0.03 µM

## CCn1cc(C(=O)O)c(=O)c2c(N)c(F)c(N[C@@H]3C[C@@H]3c3ccccc3)cc21 (relative stereo) [Compound I-23]
[1]
  % of Lgr5+ Positive Cells: 14%
  Potency (Lgr5+ activity): 2200 nM
[2]
  solubility thermodynamic at 24 h: < 0.03 µM

## CCn1cc(C(=O)O)c(=O)c2c(N)c(F)c(NC3CC(N[C@@H]4C[C@H]4c4ccccc4)C3)cc21 (relative stereo) [Compound I-70]
[1]
  % of Lgr5+ Positive Cells: 30%
  Potency (Lgr5+ activity): 3300 nM
[2]
  solubility thermodynamic at 24 h: 1.6 µM (≈ 0.721 µg/mL)

## CCn1cc(C(=O)O)c(=O)c2c(N)c(F)c(NC3CCCCC3)cc21 [Compound I-7]
[1]
  % of Lgr5+ Positive Cells: 22%
  Potency (Lgr5+ activity): 370 nM
  Lgr5 GFP+ progenitor cell proliferation (Lgr5 positive cell count): generate Lgr5 GFP+ progenitor cell proliferation
  enrichment of Lgr5 GFP+ cochlear progenitor cells (percent of Lgr5 positive cells): generates enrichment of Lgr5 GFP+ cochlear progenitor cells
[2]
  solubility thermodynamic at 24 h: < 0.12 µM

## CCn1cc(C(=O)O)c(=O)c2c(N)c(F)c(N[C@H]3C[C@H](c4ccccc4)C3)cc21 [Compound I-60]
[1]
  % of Lgr5+ Positive Cells: 30%
  Potency (Lgr5+ activity): 370 nM
[2]
  solubility thermodynamic at 24 h: < 10 µM

## CCn1cc(C(=O)O)c(=O)c2c(N)c(F)c(NC3CCOCC3)cc21 [Compound I-8]
[1]
  % of Lgr5+ Positive Cells: 21%
  Potency (Lgr5+ activity): 3300 nM
[2]
  solubility thermodynamic at 24 h: 35 µM (≈ 12.2 µg/mL)

## CCn1cc(C(=O)O)c(=O)c2c(N)c(F)c(NCCCc3ccccc3)cc21 [Compound I-19]
[1]
  % of Lgr5+ Positive Cells: 17%
  Potency (Lgr5+ activity): 370 nM
[2]
  solubility thermodynamic at 24 h: < 0.03 µM

## CCn1cc(C(=O)O)c(=O)c2c(N)c(F)c(NCCN[C@@H]3C[C@H]3c3ccccc3)cc21 (relative stereo) [Compound I-29]
[1]
  % of Lgr5+ Positive Cells: 38%
  Potency (Lgr5+ activity): 4000 nM
  Lgr5 GFP+ progenitor cell proliferation (Lgr5 positive cell count): generates Lgr5 GFP+ progenitor cell proliferation
  enrichment of Lgr5 GFP+ cochlear progenitor cells (percent of Lgr5 positive cells): generates enrichment of Lgr5 GFP+ cochlear progenitor cells
[2]
  solubility thermodynamic at 24 h: 1.93 µM (≈ 0.819 µg/mL)

## CCn1cc(C(=O)O)c(=O)c2c(N)c(F)c(NC3CCC3)cc21 [Compound I-12]
[1]
  % of Lgr5+ Positive Cells: 25%
  Potency (Lgr5+ activity): 1100 nM
[2]
  solubility thermodynamic at 24 h: 2.7 µM (≈ 0.862 µg/mL)

## CCn1cc(C(=O)O)c(=O)c2c(N)c(F)c(N[C@@H]3C[C@H]3c3ccccc3)cc21 (single isomer, unassigned) [Compound I-20]
[1]
  % of Lgr5+ Positive Cells: 42%
[2]
  solubility thermodynamic at 24 h: < 0.3 µM
